The source of these data is ChEMBL document CHEMBL5226371, “Hyperhubeins A-I, Bioactive Sesquiterpenes with Diverse Skeletons from Hypericum hubeiense” (J Nat Prod, 2023).

The subject of one data set is PC-12. As to the kind of experiment: Neuroprotective activity against H2O2-induced cell injury in rat PC-12 cells assessed as increase in cell survival at 10 uM preincubated with compound for 24 hrs followed by H2O2 addition and measured after 24 hrs by MTT assay. The format is functional, cell-based. Particulars: time 48.0 hrs.
Data set [1] can be described thus: Inhibition of NO production in LPS-induced mouse BV-2 cells incubated for 24 hrs by Griess reagent based microplate reader analysis. Particulars: BV-2, 24 h. The format is functional, cell-based.
Data set [2] deals with BV-2. As to the kind of experiment: Cytotoxicity against mouse BV-2 cells assessed as reduction in cell viability by MTT-based colorimetric method. The format is toxicity. A general note: Tetrazolium dyes change colour on reduction, which living cells bring about.
The test system of data set [3] is BV-2. As to the kind of experiment: Anti-neuroinflammatory activity in mouse BV-2 cells assessed as reduction in LPS-induced COX-2 expression at 10 uM by Western blot analysis. The format is functional, cell-based.
Data set [4] concerns BV-2. The data set can be described thus: Anti-neuroinflammatory activity in mouse BV-2 cells assessed as reduction in LPS-induced TLR-4 expression at 10 uM by Western blot analysis. The format is functional, cell-based.
In data set [5] the test system is BV-2. As to the kind of experiment: Anti-neuroinflammatory activity in LPS-stimulated mouse BV-2 cells assessed as reduction in ratio of phosphorylated NF-kappaB to NFkappaB at 10 uM by Western blot analysis. Format: functional, cell-based. (In general: A western blot detects proteins with antibodies after separation by electrophoresis.)
Data set [6] has as its system BV-2. The data set can be described thus: Anti-neuroinflammatory activity in mouse BV-2 cells assessed as reduction in LPS-induced iNOS expression at 10 uM by Western blot analysis. The format is functional, cell-based.

Broadly, the IC50 is the concentration at which inhibition is half-maximal. Read a low IC50 as higher potency.

Each structure is given as a SMILES string. Calls of active or inactive are those of the source. No cut-off for these calls is given here.

As for `C=C(CO[C@@H]1O[C@H](CO)[C@@H](O)[C@H](O)[C@H]1O)[C@@H]1CC[C@@]2(O)CCC[C@@H](C)[C@]2(C)C1`, in the data set with PC-12, the result was Active. Still for that read-out and setting: the same measure for `C=C1CC[C@H]2O[C@]2(C)CC[C@@H]2[C@@H]1CC2(C)C`: “Active”. With `C=C1CCC(=O)[C@]2(C)CC[C@@H](C(C)C)[C@H](O)[C@@H]12`, 4.92 µM corresponded to half-maximal inhibition in data set [1] (IC50). In addition, the Activity result with BV-2 [2] was “Non-Toxic”.

In turn, `O=c1c(O)c(-c2ccc(O)c(O)c2)oc2cc(O)cc(O)c12` [QUERCETIN] registered an IC50 in data set [1] of 6.5 µM. For `C=C(C)[C@@H]1CCC2=C[C@H](OC)C[C@@H](C)[C@]2(C)C1`, the outcome in the data set on PC-12 was Active. Take `C=C(C)[C@@H]1CC[C@@]2(C)[C@H](O)CC[C@@](C)(O)[C@@H]2C1`: the outcome in the data set on PC-12 was Active. For `C=C1CCC[C@H]2[C@@H]1[C@@H](C(C)=O)C[C@H]2C(C)C`, the IC50 in data set [1] turned out to be 5.91 µM. Also, the result in the data set with PC-12 was Active. Also, the Activity entry with BV-2 [2] is reported as “Non-Toxic”. In the case of `C=C(C)[C@H]1CC[C@]2(C)O[C@H]2CC[C@@]2(C)O[C@@H]2C1`, the outcome in the data set with PC-12 was Active. As for `C=C1CCC[C@H]2[C@@H]1[C@H](C(C)=O)C[C@H]2C(C)C`, it took 6.81 µM to reach half-maximal inhibition in data set [1] (IC50). For the same compound, the result in the data set with PC-12 was Active. Besides, the Activity result in the data set on BV-2 [2] is on record as “Non-Toxic”. As for `CC1=CC[C@H](O)[C@@]2(C)CC[C@H](C(C)(C)O[C@@H]3O[C@H](CO)[C@@H](O)[C@H](O)[C@H]3O)C[C@@H]12`, the outcome with PC-12 was Active. On to `C=C(C)[C@@H]1CC(=O)C2=CC(=O)C[C@@H](C)[C@]2(C)C1`, for which the result in the data set with BV-2 [3], with BV-2 [4], in the data set with BV-2 [5] and in the data set on BV-2 [6] was Active. This compound gave an IC50 in data set [1] of 6.23 µM. Besides, the Activity entry with BV-2 [2] is listed as “Non-Toxic”.
